Measured values published in patent publication EP4800018A1, “PAN-KRAS INHIBITOR AND USE THEREOF IN MEDICINES” (Betta Pharmaceuticals Co., Ltd., priority 2023, dated 2025).
Like-named read-outs stand apart in the source and are kept apart here.

Key:
Assay type in all cases: cell-based
KRAS G12V-cRAF = biological target: T1, KRAS G12V-cRAF (Homo sapiens, UniProt P01116, G12V); assay: Cellular KRAS G12V-cRAF Binding Inhibition Assay (NanoBRET, AD293 stable cells); details: 3 h incubation
T1 construct: expressed in transfected cells
Experimental: NanoLuc® luciferase was used as the energy donor, and NanoBRET™ 618 fluorescent ligand labeled with the HaloTag® protein was used as the energy acceptor to detect protein-protein interactions in living cells. […] Except for wells with medium added as a blank control, NanoBRET™ 618 fluorescent ligand was added to all other wells, and the plates were cultured overnight in a cell culture incubator. […] The luminescence data were calculated and converted into inhibition percent. The inhibition percent of KRAS G12V-cRAF binding was calculated according to the following formula: Inhibition Percent = (MaxValue−MeasuredValue)/(MaxValue−Blank) × 100% [formula] […] Curve fitting was performed using GraphPad Prism software to obtain IC50 values, see Table 1.

[1] = test system: KRAS-G12V mutant tumor cells SW620; assay: Cell Proliferation Inhibition Assay (SW620), Cell-titer GLO, 96 h; details: read-out: SW620(G12V)
In short: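 Readout: Cell-titer GLO luminescence after 96 h at 37°C, converted to percent inhibition against 0.5% DMSO and blank controls, with IC50 from curve fit. Low-attachment SW620 cultures (1×10^3 cells/well) were dosed at 10000–0.03 nM final.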

[2] = test system: KRAS-G12D mutant tumor cells AGS; assay: Cell Proliferation Inhibition Assay (AGS), Cell-titer GLO, 96 h; details: read-out: AGS(G12D)
In short: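 Inhibition % was derived from CellTiter-Glo luminescence (max minus measured, over max minus blank) and fitted to give IC50. Cells were KRAS-G12D AGS in low-attachment wells, treated for 96 h at 37°C.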

KRAS G12D-cRAF = biological target: T2, KRAS G12D-cRAF (Homo sapiens, UniProt P01116, G12D); assay: Cellular KRAS G12D-cRAF Binding Inhibition Assay (NanoBRET, AD293 stable cells); details: 3 h incubation
T2 construct: expressed in transfected cells
Experimental: NanoLuc® luciferase was used as the energy donor, and NanoBRET™ 618 fluorescent ligand labeled with the HaloTag® protein was used as the energy acceptor to detect protein-protein interactions in living cells. AD293 stable cells transfected with KRAS G12D-NanoLuc® luciferase and cRAF RBD-HaloTag® tag protein were seeded in 96-well plates at a cell density of 1×10^4 cells/well. Except for wells with medium added as a blank control, NanoBRET™ 618 fluorescent ligand was added to all other wells, and the plates were cultured overnight in a cell culture incubator. […] The luminescence data were calculated and converted into inhibition percent. The inhibition percent of KRAS G12D-cRAF binding was calculated according to the following formula: Inhibition Percent = (MaxValue−MeasuredValue)/(MaxValue−Blank) × 100% [formula] […] Curve fitting was performed using GraphPad Prism software to obtain IC50 values, see Table 1.

[3] = Homo sapiens, SW-620, 96 h, SW620 cells, 96 h incubation, Cell-titer GLO
[4] = Homo sapiens, AGS, 96 h, AGS cells, 96 h incubation, Cell-titer GLO

Compound: C[C@H]1C[C@@H]1C(=O)N[C@H]1Cc2nc(cs2)-c2ccc3c(c2)c(c2n3CCCOCc3ncc(N4CCN(C)CC4)cc3-2)CC(C)(C)COC(=O)[C@@H]2CCCN(N2)C1=O [Example 2, (1S,2S)-N-((6^3S,4S,Z)-10,10-dimethyl-1^2-(4-methylpiperazin-1-yl)-5,7-dioxo-1^8,1^9,6^1,6^2,6^3,6^4,6^5 ,6^6-octahydro-1^5H,1^7H-8-oxa-1(13,15)-pyrido[3',2':7,8][1,5]oxazonino[5,6-a]indola-2(4,2)-thiazola-6(1,3)-pyridazinacycloundecaphane-4-yl)-2-methylcyclopropane-1-carboxamide]
- IC50 (KRAS G12V-cRAF; NanoBRET KRAS G12V): 206 nM
- IC50 ([1]; Homo sapiens, SW-620, 96 h): 1.56 nM
- IC50 ([2]; Homo sapiens, AGS, 96 h): 8.7 nM
- IC50 (KRAS G12D-cRAF; NanoBRET KRAS G12D): 29.1 nM

Compound: CC1OCCCn2c(c3c4cc(ccc42)-c2csc(n2)CC(NC(=O)C2CC2C(F)F)C(=O)N2CCCC(N2)C(=O)OCC(C)(C)C3)-c2cc(N3CC(N4CCOCC4)C3)cnc21 [Example 115, (1S,2S)-2-(difluoromethyl)-N-((1^5S,6^3S,4S,Z)-1^5,10,10-trimethyl-1^2-(3-morpholinoazetidin-1-yl) -5,7-dioxo-1^8,1^9,6^1,6^2,6^3,6^4,6^5,6^6-octahydro-1^5H,1^7H-8-oxa-1(13,15)-pyrido[3',2':7,8][1,5]oxazonino[5,6-a]indola-2(4,2)-thiazola-6(1,3)-pyridazinacycloundecaphane-4-yl)cyclopropane-1-carbox amide]
- IC50 (KRAS G12V-cRAF; read-out: NanoBRET KRAS G12V): 16.3 nM
- IC50 [1, 3]: 0.9 nM
- IC50 [2, 4]: 1.72 nM
- IC50 (KRAS G12D-cRAF; read-out: NanoBRET KRAS G12D): 4.28 nM

Compound: CC1OCCCn2c(c3c4cc(ccc42)-c2csc(n2)CC(NC(=O)C2CC2C(F)F)C(=O)N2CCCC(N2)C(=O)OCC(C)(C)C3)-c2cc(N3CCN(C4CCN(C)CC4)CC3)cnc21 [Example 104, (1S,2S)-2-(difluoromethyl)-N-((1^5S,6^3S,4S,Z)-1^5,10,10-trimethyl-1^2-(4-(1-methylpiperidin-4-yl)piperazin-1-yl)-5,7-dioxo-1^8,1^9,6^1,6^2,6^3,6^4,6^5,6^6-octahydro-1^5H,1^7H-8-oxa-1(13,15)-pyrido[3',2': 7,8][1,5]oxazonino[5,6-a]indola-2(4,2)-thiazola-6(1,3)-pyridazinacycloundecaphane-4-yl)cyclop ropane-1-carboxamide]
- IC50 (KRAS G12V-cRAF; read-out: NanoBRET KRAS G12V): 11.8 nM
- IC50 [1, 3]: 0.2 nM
- IC50 [2, 4]: 0.63 nM
- IC50 (KRAS G12D-cRAF; read-out: NanoBRET KRAS G12D): 3.2 nM

Compound: CC1OCCCn2c(c3c4cc(ccc42)-c2csc(n2)CC(NC(=O)C2CC2C(F)F)C(=O)N2CCCC(N2)C(=O)OCC(C)(C)C3)-c2cc(N3CCC(F)(F)CC3)cnc21 [Example 114, (1S,2S)-2-(difluoromethyl)-N-((1^5S,6^3S,4S,Z)-1^2-(4,4-difluoropiperidin-1-yl)-1^5,10,10-trimethyl-5,7-dioxo-1^8,1^9,6^1,6^2,6^3,6^4,6^5,6^6-octahydro-1^5H, 1^7H-8-oxa-1(13,15)-pyrido[3',2':7,8][1,5]oxazonino[5,6-alindola-2(4,2)-thiazola-6(1,3)-pyridazinacycloundecaphane-4-yl)cyclopropane-1-carbox amide]
- IC50 (KRAS G12V-cRAF; read-out: NanoBRET KRAS G12V): 65.8 nM
- IC50 [1, 3]: 3.4 nM
- IC50 [2, 4]: 15.7 nM
- IC50 (KRAS G12D-cRAF; read-out: NanoBRET KRAS G12D): 19.4 nM

Compound: CC1OCCCn2c(c3c4cc(ccc42)-c2csc(n2)CC(NC(=O)C2CC2C(F)F)C(=O)N2CCCC(N2)C(=O)OCC(C)(C)C3)-c2cc(N3CCN(C4CCOCC4)CC3)cnc21 [Example 109, (1S,2S)-2-(difluoromethyl)-N-((1^5S,6^3S,4S,Z)-1^5,10,10-trimethyl-5,7-dioxo-1^2-(4-(tetrahydro-2H -pyran-4-yl)piperazin-1-yl)-18, 1^9,6^1,6^2,6^3 ,6^4,6^5,6^6-octahydro-1^5H,1^7H-8-oxa-1(13,15)-pyrido[3',2' :7,8][1,5]oxazonino[5,6-a]indola-2(4,2)-thiazola-6(1,3)-pyridazinacycloundecaphane-4-yl)cyclo propane-1-carboxamide]
- IC50 (KRAS G12V-cRAF; read-out: NanoBRET KRAS G12V): 14.9 nM
- IC50 [1, 3]: 0.2 nM
- IC50 [2, 4]: 1.02 nM
- IC50 (KRAS G12D-cRAF; read-out: NanoBRET KRAS G12D): 6.2 nM

Compound: (1S,2S)-2-(difluoromethyl)-N-((1^5S,6^3S,4S,Z)-1^5,10,10-trimethyl-1^2-(6-methyl-3,6-diazabicyclo[ 3.1.1]heptan-3-yl)-5,7-dioxo-1^8,1^9,6^1,6^2,6^3,6^4,6^5,6^6-octahydro-1^5H,1^7H-8-oxa-1(13,15)-pyrido[3', 2':7,8][1,5]oxazonino[5,6-a]indola-2(4,2)-thiazola-6(1,3)-pyridazinacycloundecaphane-4-yl)cycl opropane-1-carboxamide [Example 150]
- IC50 (KRAS G12V-cRAF; read-out: NanoBRET KRAS G12V): 8.1 nM
- IC50 ([1]; SW620 cells, 96 h incubation, Cell-titer GLO): 0.16 nM
- IC50 ([2]; AGS cells, 96 h incubation, Cell-titer GLO): 0.93 nM
- IC50 (KRAS G12D-cRAF; read-out: NanoBRET KRAS G12D): 1.61 nM

Compound: CC1OCCCn2c(c3c4cc(ccc42)-c2csc(n2)CC(NC(=O)C2CC2C(F)F)C(=O)N2CCCC(N2)C(=O)OCC(C)(C)C3)-c2cc(N(C)CCN(C)C)cnc21 [Example 87, (1S,2S)-2-(difluoromethyl)-N-((1^5S,6^3S,4S,Z)-1^2-((2-(dimethylamino)ethyl)(methyl)amino)-1^5,1 0,10-trimethyl-5,7-dioxo-1^8,1^9,6^1,6^2,6^3,6^4,6^5,6^6-octahydro-1^5H,1^7H-8-oxa-l(13,15)-pyrido[3',2':7 ,8][1,5]oxazonino[5,6-a]indola-2(4,2)-thiazola-6(1,3)-pyridazinacycloundecaphane-4-yl)cyclopr opane-1-carboxamide]
- IC50 (KRAS G12V-cRAF; read-out: NanoBRET KRAS G12V): 184 nM
- IC50 [1, 3]: 2.75 nM
- IC50 [2, 4]: 8.3 nM
- IC50 (KRAS G12D-cRAF; read-out: NanoBRET KRAS G12D): 38.8 nM

Compound: COCCN1CCN(c2cnc3c(c2)-c2c4c5cc(ccc5n2CCCOC3C)-c2csc(n2)CC(NC(=O)C23CC(C)(C2)C3)C(=O)N2CCCC(N2)C(=O)OCC(C)(C)C4)CC1 [Example 38, N-((1^5S,6^3S,4S,Z)-1^2-(4-(2-methoxyethyl)piperazin-1-yl)-1^5,10,10-trimethyl-5,7-dioxo-1^8,1^9,6^1,6 ^2,6^3,6^4,6^5,6^6-octahydro-1^5H,1^7H-8-oxa-1(13,15)-pyrido[3',2':7,8][1,5]oxazonino[5,6-a]indola-2(4 ,2)-thiazola-6(1,3)-pyridazinacycloundecaphane-4-yl)-3-methylbicyclo[1.1.1]pentane-1-carboxamide]
- IC50 (KRAS G12V-cRAF; read-out: NanoBRET KRAS G12V): 31.9 nM
- IC50 [1, 3]: 1.72 nM
- IC50 [2, 4]: 4.2 nM
- IC50 (KRAS G12D-cRAF; read-out: NanoBRET KRAS G12D): 8.6 nM

Compound: CC1OCCCn2c(c3c4cc(ccc42)-c2csc(n2)CC(NC(=O)C2CC2C(F)F)C(=O)N2CCCC(N2)C(=O)OCC(C)(C)C3)-c2cc(N3CCC(N4CCOCC4)CC3)cnc21 [Example 106, (1S,2S)-2-(difluoromethyl)-N-((1^5S,6^3S,4S,Z)-1^5,10,10-trimethyl-1^2-(4-morpholinopiperidin-1-yl)-5,7-dioxo-1^8,1^9,6^1,6^2,6^3,6^4,6^5,6^6-octahydro-1^5H,1^7H-8-oxa-1(13,15)-pyrido[3',2':7,8][1,5]oxazonino[5,6-a]indola-2(4,2)-thiazola-6(1,3)-pyridazinacycloundecaphane-4-yl)cyclopropane-1-carb oxamide]
- IC50 (KRAS G12V-cRAF; read-out: NanoBRET KRAS G12V): 27.4 nM
- IC50 [1, 3]: 0.24 nM
- IC50 [2, 4]: 0.86 nM
- IC50 (KRAS G12D-cRAF; read-out: NanoBRET KRAS G12D): 6.39 nM

Compound: CC1OCCCn2c(c3c4cc(ccc42)-c2csc(n2)CC(NC(=O)C2CC2C(F)F)C(=O)N2CCCC(N2)C(=O)OCC(C)(C)C3)-c2cc(N3CCNCC3)cnc21 [Example 112, (1S,2S)-2-(difluoromethyl)-N-((1^5S,6^3S,4S,Z)-1^5,10,10-trimethyl-5,7-dioxo-1^2-(piperazin-1-yl)-1 ^8,1^9,6^1,6^2,6^3,6^4,6^5,6^6-octahydro-1^5H,1^7H-8-oxa-1(13,15)-pyrido[3',2':7,8][1,5]oxazonino[5,6-a]indola-2(4,2)-thiazola-6(1,3)-pyridazinacycloundecaphane-4-yl)cyclopropane-1-carboxamide]
- IC50 (KRAS G12V-cRAF; read-out: NanoBRET KRAS G12V): 34.2 nM
- IC50 [1, 3]: 0.34 nM
- IC50 [2, 4]: 2.68 nM
- IC50 (KRAS G12D-cRAF; read-out: NanoBRET KRAS G12D): 8.39 nM
